Source: ChEMBL document CHEMBL4823292, “Design, synthesis, and functional evaluation of triazine-based bivalent agents that simultaneously target the active site and hot spot of phosphatase Cdc25B” (Bioorg Med Chem Lett, 2021)
The source made the active and inactive calls. No cut-off for these calls is given here.

How the values were obtained:
[1] = biological target: T1, M-phase inducer phosphatase 2 (Homo sapiens) (UniProt P30305); assay: Inhibition of recombinant human Cdc25B ([…] residues) using O-methylfluorescein phosphate as substrate at 1 to 30 uM by fluorescence assay; conditions: dose 1-30 µM
T1 sequence (whole entry): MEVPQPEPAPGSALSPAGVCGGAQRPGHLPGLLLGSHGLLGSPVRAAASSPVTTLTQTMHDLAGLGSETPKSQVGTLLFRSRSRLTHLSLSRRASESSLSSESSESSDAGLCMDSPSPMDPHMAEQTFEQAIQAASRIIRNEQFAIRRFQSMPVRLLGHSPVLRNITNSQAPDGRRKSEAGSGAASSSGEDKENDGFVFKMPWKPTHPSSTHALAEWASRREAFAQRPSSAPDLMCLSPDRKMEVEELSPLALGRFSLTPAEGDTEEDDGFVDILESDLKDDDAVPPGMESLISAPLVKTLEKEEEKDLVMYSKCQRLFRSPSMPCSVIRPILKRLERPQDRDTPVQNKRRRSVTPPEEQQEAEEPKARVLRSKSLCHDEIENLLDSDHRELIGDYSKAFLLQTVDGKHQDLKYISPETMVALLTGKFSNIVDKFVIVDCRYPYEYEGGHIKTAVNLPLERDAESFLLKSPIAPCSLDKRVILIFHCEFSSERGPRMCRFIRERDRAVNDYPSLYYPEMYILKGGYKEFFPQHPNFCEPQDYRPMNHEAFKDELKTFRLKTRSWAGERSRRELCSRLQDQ

[2] = biological target: T1, M-phase inducer phosphatase 2 (Homo sapiens); assay: Inhibition of recombinant human Cdc25B ([…] residues) using O-methylfluorescein phosphate as substrate at 1 to 500 uM by fluorescence assay; conditions: dose 1-500 µM
[3] = biological target: T2, M-phase inducer phosphatase 1 (Homo sapiens) (UniProt P30304); assay: Inhibition of Cdc25A (unknown origin) at 1 to 500 uM by fluorescence assay; conditions: dose 1-500 µM
T2 sequence (whole entry): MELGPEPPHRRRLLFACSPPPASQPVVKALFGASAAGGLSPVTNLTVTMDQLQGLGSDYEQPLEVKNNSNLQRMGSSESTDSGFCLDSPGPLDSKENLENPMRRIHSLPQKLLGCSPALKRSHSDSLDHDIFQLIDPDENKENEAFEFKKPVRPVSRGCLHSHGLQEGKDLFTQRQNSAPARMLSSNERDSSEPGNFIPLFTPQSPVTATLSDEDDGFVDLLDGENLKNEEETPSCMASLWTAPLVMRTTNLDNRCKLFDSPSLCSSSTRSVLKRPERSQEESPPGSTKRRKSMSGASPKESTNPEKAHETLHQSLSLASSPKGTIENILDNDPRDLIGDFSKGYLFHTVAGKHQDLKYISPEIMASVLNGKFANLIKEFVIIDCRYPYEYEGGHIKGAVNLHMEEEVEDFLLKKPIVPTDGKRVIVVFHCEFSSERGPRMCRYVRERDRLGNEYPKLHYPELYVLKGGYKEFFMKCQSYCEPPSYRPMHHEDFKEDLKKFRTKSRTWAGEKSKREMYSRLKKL

[4] = biological target: T3, M-phase inducer phosphatase 2 (Homo sapiens, UniProt P30305); assay: Competitive inhibition of recombinant human Cdc25B ([…] residues) assessed as hydrolysis of substrate O-methylfluorescein phosphate by Lineweaver-Burk plot analysis
T3 sequence (P30305 whole entry): T1 sequence (whole entry)

[5] = biological target: T1, M-phase inducer phosphatase 2 (Homo sapiens); assay: Inhibition of recombinant human Cdc25B ([…] residues) using O-methylfluorescein phosphate as substrate at 30 uM by fluorescence assay
[6] = biological target: T2, M-phase inducer phosphatase 1 (Homo sapiens); assay: Inhibition of Cdc25A (unknown origin) at 1 to 30 uM; conditions: dose 1-30 µM

O=C(O)C[C@H](Nc1nc(O)nc(N[C@@H](Cc2c[nH]c3ccccc23)C(=O)O)n1)C(=O)O
inhibition [1]: inactive

O=C(O)C[C@H](Nc1nc(NCCCC(=O)NCCCCCNc2nc(N[C@@H](CC(=O)O)C(=O)O)nc(N[C@@H](Cc3c[nH]c4ccccc34)C(=O)O)n2)nc(N[C@@H](Cc2ccc(O)cc2)C(=O)O)n1)C(=O)O
inhibition (active/inactive) [2]: Active
inhibition [3]: inactive
Ki [4]: 2.6 µM
inhibition [5]: 43%

C[C@H](Nc1nc(NCCCCCNC(=O)CCCNc2nc(N[C@@H](CC(=O)O)C(=O)O)nc(N[C@@H](Cc3ccc(O)cc3)C(=O)O)n2)nc(N[C@@H](C)C(=O)O)n1)C(=O)O
inhibition (active/inactive) [2]: Active

CC(C)C[C@H](Nc1nc(NCCCCCNC(=O)CCCNc2nc(N[C@@H](CC(=O)O)C(=O)O)nc(N[C@@H](Cc3ccc(O)cc3)C(=O)O)n2)nc(N[C@@H](C)C(=O)O)n1)C(=O)O
inhibition (active/inactive) [2]: Active
inhibition [3]: inactive

O=C(O)C[C@H](Nc1nc(NCCCCCCCCCCNc2nc(N[C@@H](CC(=O)O)C(=O)O)nc(N[C@@H](Cc3c[nH]c4ccccc34)C(=O)O)n2)nc(N[C@@H](Cc2ccc(O)cc2)C(=O)O)n1)C(=O)O
inhibition [5]: 1.5%
inhibition [6]: Active

COC(=O)[C@H](CCCCN)Nc1nc(NCCCCCNC(=O)CCCNc2nc(N[C@@H](CCCCN)C(=O)OC)nc(N[C@@H](CCCCN)C(=O)OC)n2)nc(N[C@@H](CCCCN)C(=O)OC)n1
inhibition (active/inactive) [2]: Active

C[C@H](Nc1nc(NCCCCCNC(=O)CCCNc2nc(N[C@@H](C)C(=O)O)nc(N[C@@H](C)C(=O)O)n2)nc(N[C@@H](C)C(=O)O)n1)C(=O)O
inhibition (active/inactive) [2]: Active
inhibition [3]: Active

O=C(O)C[C@H](Nc1nc(O)nc(N[C@@H](Cc2ccc(O)cc2)C(=O)O)n1)C(=O)O
inhibition [1]: inactive
